Laboratory results from patent US20010047099A1, “4-aminopicolinates and their use as herbicides” (priority 2000, published 2001).
Where two headings read alike, the source gives them in different places.

Columns and labels:
Format in all cases: in vivo
[1] = system: Rox orange sorghum (sorghum bicolor); test: Postemergence herbicidal activity; settings: post-emergence, 336 h
How it was run: (§1)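 Spray rate conversion: 1 ppm ≈ 1 g/Ha. The test used greenhouse seedlings (first/second true leaf) treated with a serially diluted compound spray. Control plants received carrier only. Efficacy was taken as visual injury at 2 weeks on a 0–100% scale.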

[2] = system: barnyardgrass (Echinochloa crus-galli); test: Postemergence herbicidal activity; settings: for inhibition at 125 ppm: Echinochloa crus-galli, post-emergence, 336 h, Table 2, rate 125 ppm, after 2 weeks, read-out: POSTMERGENCE HERBICIDAL ACTIVITY % CONTROL ECHCG; for post emergent evaluation - % control ECHCG: Table 3, weeds in rice, rate 250 ppm
How it was run: as §1

[3] = system: blackgrass (Alopecurus myosuroides); test: Postemergence herbicidal activity; settings: post-emergence, 336 h
How it was run: as §1

[4] = system: crabgrass (Digitaria sanguinalis); test: Postemergence herbicidal activity; settings: post-emergence, 336 h
How it was run: as §1

[5] = system: giant foxtail (Setaria faberi); test: Postemergence herbicidal activity; settings: post-emergence, 336 h
How it was run: as §1

[6] = system: lambsquarters (Chenopodium album); test: Postemergence herbicidal activity; settings: for inhibition at 125 ppm: Chenopodium album, post-emergence, 336 h, Table 2, rate 125 ppm, after 2 weeks, read-out: POSTMERGENCE HERBICIDAL ACTIVITY % CONTROL CHEAL
How it was run: as §1

[7] = system: pigweed (Amaranthus retroflexus); test: Postemergence herbicidal activity; settings: Amaranthus retroflexus, post-emergence, 336 h, Table 2, rate 125 ppm, after 2 weeks, read-out: POSTMERGENCE HERBICIDAL ACTIVITY % CONTROL AMARE
How it was run: as §1

[8] = system: velvetleaf (Abutillon theophrasti); test: Postemergence herbicidal activity; settings: Abutilon theophrasti, post-emergence, 336 h, Table 2, rate 125 ppm, after 2 weeks, read-out: POSTMERGENCE HERBICIDAL ACTIVITY % CONTROL ABUTH
How it was run: as §1

[9] = system: viola (Viola tricolor); test: Postemergence herbicidal activity; settings: post-emergence, 336 h
How it was run: as §1

[10] = system: wild oats (Avena fatua); test: Postemergence herbicidal activity; settings: post-emergence, 336 h
How it was run: as §1

[11] = system: field bindweed (Convolvulus arvensis); test: Range & Pasture Crop Testing (postemergence track sprayer); settings: for GR80 CONAR: Table 10, clover pasture, postemergence
How it was run: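 Postemergence track-sprayer application at 187 L/ha, compounds formulated in 97:3 acetone:DMSO with 0.25% X-77, five rates (X serially diluted to 1/16×). Visual percent control (0–100 scale, burn down) rated 3 weeks after treatment; GR50/GR80 derived by probit analysis.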

[12] = Table 2, rate 125 ppm, after 2 weeks, read-out: POSTMERGENCE HERBICIDAL ACTIVITY % CONTROL SORBI
[13] = Table 2, rate 125 ppm, after 2 weeks, read-out: POSTMERGENCE HERBICIDAL ACTIVITY % CONTROL ALOMY
[14] = Table 2, rate 125 ppm, after 2 weeks, read-out: POSTMERGENCE HERBICIDAL ACTIVITY % CONTROL DIGSA
[15] = Table 2, rate 125 ppm, after 2 weeks, read-out: POSTMERGENCE HERBICIDAL ACTIVITY % CONTROL SETFA
[16] = Table 2, rate 125 ppm, after 2 weeks, read-out: POSTMERGENCE HERBICIDAL ACTIVITY % CONTROL VIOTR
[17] = Table 2, rate 125 ppm, after 2 weeks, read-out: POSTMERGENCE HERBICIDAL ACTIVITY % CONTROL AVEFA

Nc1cc(Cl)nc(C(=O)O)c1Cl [Compound 1, 4-Amino-3,6-dichloropyridine-2-carboxylic acid]
inhibition at 125 ppm ([1]; read-out: PO[…] % CONTROL SORBI, Table 2, rate 125 ppm, after 2 weeks, read-out: POSTMERGENCE HERBICIDAL ACTIVITY % CONTROL SORBI): 50%
inhibition at 125 ppm ([2]; read-out: PO[…] % CONTROL ECHCG): 45%
post emergent evaluation - % control ECHCG [2]: 75%
inhibition at 125 ppm ([3]; read-out: PO[…] % CONTROL ALOMY, Table 2, rate 125 ppm, after 2 weeks, read-out: POSTMERGENCE HERBICIDAL ACTIVITY % CONTROL ALOMY): 50%
inhibition at 125 ppm ([4]; read-out: PO[…] % CONTROL DIGSA, Table 2, rate 125 ppm, after 2 weeks, read-out: POSTMERGENCE HERBICIDAL ACTIVITY % CONTROL DIGSA): 60%
inhibition at 125 ppm ([5]; read-out: PO[…] % CONTROL SETFA, Table 2, rate 125 ppm, after 2 weeks, read-out: POSTMERGENCE HERBICIDAL ACTIVITY % CONTROL SETFA): 75%
inhibition at 125 ppm ([6]; read-out: PO[…] % CONTROL CHEAL): 100%
inhibition at 125 ppm ([7]; read-out: PO[…] % CONTROL AMARE): 95%
inhibition at 125 ppm ([8]; read-out: PO[…] % CONTROL ABUTH): 70%
inhibition at 125 ppm ([9]; read-out: PO[…] % CONTROL VIOTR, Table 2, rate 125 ppm, after 2 weeks, read-out: POSTMERGENCE HERBICIDAL ACTIVITY % CONTROL VIOTR): 80%
inhibition at 125 ppm ([10]; read-out: PO[…] % CONTROL AVEFA, Table 2, rate 125 ppm, after 2 weeks, read-out: POSTMERGENCE HERBICIDAL ACTIVITY % CONTROL AVEFA): 50%
Post-emergent GR80 CONAR ([11]; Table 8, salts of Compound 1, dose for 80 percent control): 59 g/Ha

COC(=O)c1nc(Cl)cc(N)c1Cl [Compound 3, methyl 4-amino-3,6-dichloropyridine-2-carboxylate]
GR80 CONAR [11]: 127.7 g/ha

CCOC(=O)c1nc(Cl)cc(N)c1Cl [Compound 4, ethyl 4-amino-3,6-dichloropyridine-2-carboxylate]
inhibition at 125 ppm [1, 12]: 40%
inhibition at 125 ppm [2]: 50%
inhibition at 125 ppm [3, 13]: 40%
inhibition at 125 ppm [4, 14]: 70%
inhibition at 125 ppm [5, 15]: 75%
inhibition at 125 ppm [6]: 100%
inhibition at 125 ppm [7]: 100%
inhibition at 125 ppm [8]: 70%
inhibition at 125 ppm [9, 16]: 70%
inhibition at 125 ppm [10, 17]: 40%
GR80 CONAR [11]: 59 g/ha

Nc1cc(Br)nc(C(=O)O)c1Cl [Compound 14, 4-Amino-6-bromo-3-chloropyridine-2-carboxylic acid]
inhibition at 125 ppm [1, 12]: 60%
inhibition at 125 ppm [2]: 65%
post emergent evaluation - % control ECHCG [2]: 65%
inhibition at 125 ppm [3, 13]: 50%
inhibition at 125 ppm [4, 14]: 65%
inhibition at 125 ppm [5, 15]: 65%
inhibition at 125 ppm [6]: 95%
Post-emergent Evaluation - % control CHEAL ([6]; Table 5, rate 250 ppm): 70%
inhibition at 125 ppm [7]: 90%
inhibition at 125 ppm [8]: 85%
inhibition at 125 ppm [9, 16]: 75%
inhibition at 125 ppm [10, 17]: 40%

Nc1c(F)c(Cl)nc(C(=O)O)c1Cl [Compound 19, 4-Amino-3,6-dichloro-5-fluoropyridine-2-carboxylic acid]
inhibition at 125 ppm [1, 12]: 10%
inhibition at 125 ppm [2]: 10%
inhibition at 125 ppm [3, 13]: 20%
inhibition at 125 ppm [4, 14]: 30%
inhibition at 125 ppm [5, 15]: 20%
inhibition at 125 ppm [6]: 95%
inhibition at 125 ppm [7]: 60%
inhibition at 125 ppm [8]: 50%
inhibition at 125 ppm [9, 16]: 50%
inhibition at 125 ppm [10, 17]: 20%
